Entries after “also recorded” stand apart in the source; their conditions may differ.
Experiments:
[1] = system: stented rat abdominal aorta (neointimal formation); assay: Rat abdominal aorta stenting model, histomorphometry and histology after 28 days; format: in vivo, Wistar rats
Method: Twenty-eight male Wistar rats (Harlan, Horst, Netherlands) weighing 450 to 520 grams were anesthetized with O2, N2O and isofluorane (Abbot B.V., Hoofddorp, Netherlands). A pre-mounted 2.5×9 mm BeStentTM 2 (Medtronic-Bakken Research, Maastricht, the Netherlands) was implanted in the abdominal aorta as previously described, or a sham operation was performed.^35 Subsequently, an osmotic minipump with a pumping rate of 0.25 μl/hour, lasting for 28 days (Model 2004, Alzet, Charles River Nederland, Maastricht, Netherlands), was implanted subcutaneously for drug delivery via a catheter in the jugular vein. […] rats received angiotensin-(1-7) (Bachem, Weil am Rhein, Germany) (24 μg/kg/hour) (n=7) or saline (0.25 μl/hour) (n=10). Sham-operated rats received saline infusion (n=6). […] At this concentration, Ang-(1-7) binds to the Mas receptor and has subsequent functional effects. Five rats died peri-operatively due to rupture of the aorta. After 28 days, the animals were anesthetized and heparinized with 500 IU intravenously (Leo Pharma B.V., Breda, Netherlands). The abdominal aortas were subsequently harvested, fixed, embedded in methylmetacrylate, sectioned and stained for histological analysis. The endothelial function was tested in isolated thoracic aortic rings. Histomorphometrical analysis was performed on elastica van Gieson-stained sections by measurements of the proximal, middle and distal parts of each stent. To assess neointimal formation, areas within the external elastic lamina (EEL), internal elastic lamina (IEL) and lumen were measured by using digital morphometry. The neointimal area, media area, lumen area and the percentage of stenosis were calculated. The injury and inflammation scores were assessed as described by Schwartz et al. and Kornowski et al. Briefly, each strut was assigned a nominal score from 0 to 3 dependent upon the severity of the injury or inflammation. The average score is calculated by dividing the sum of scores by the number of struts. Total cell density and polymorphonuclear leukocyte density were determined in hematoxylin-eosin stained sections at ×400 magnification and expressed as ×100/mm^2. To assess a single measurement for each stent, the mean values of the proximal, middle and distal parts were calculated. Data are expressed as mean value±standard error of the mean (SEM). Statistical analysis between groups was performed by a student's t-test. Differences in dose-response curves between groups were tested by ANOVA for repeated measures using Greenhouse-Geisser correction for asphericity. Values of p=0.05 were considered statistically significant. For statistical analysis, SPSS software (Chicago, USA) was used.

[2] = system: thoracic aortic rings; assay: Organ bath studies with isolated thoracic aortic rings (endothelial function) from stented, treated rats; format: in vivo, Wistar rats
Method: Twenty-eight male Wistar rats (Harlan, Horst, Netherlands) weighing 450 to 520 grams were anesthetized with O2, N2O and isofluorane (Abbot B.V., Hoofddorp, Netherlands). A pre-mounted 2.5×9 mm BeStentTM 2 (Medtronic-Bakken Research, Maastricht, the Netherlands) was implanted in the abdominal aorta as previously described, or a sham operation was performed.^35 Subsequently, an osmotic minipump with a pumping rate of 0.25 μl/hour, lasting for 28 days (Model 2004, Alzet, Charles River Nederland, Maastricht, Netherlands), was implanted subcutaneously for drug delivery via a catheter in the jugular vein. […] rats received angiotensin-(1-7) (Bachem, Weil am Rhein, Germany) (24 μg/kg/hour) (n=7) or saline (0.25 μl/hour) (n=10). Sham-operated rats received saline infusion (n=6). […] At this concentration, Ang-(1-7) binds to the Mas receptor and has subsequent functional effects. Five rats died peri-operatively due to rupture of the aorta. After 28 days, the animals were anesthetized and heparinized with 500 IU intravenously (Leo Pharma B.V., Breda, Netherlands). The abdominal aortas were subsequently harvested, fixed, embedded in methylmetacrylate, sectioned and stained for histological analysis. […] The endothelium-dependant vasodilatation was assessed by a cumulative dose of meatcholine (10 nM to 10 mM). […] Data are expressed as mean value±standard error of the mean (SEM). […]

[3] = in vivo; details: male, Wistar, rat, iv, 24 ug/kg/hour
Method: Twenty-eight male Wistar rats (Harlan, Horst, Netherlands) weighing 450 to 520 grams were anesthetized with O2, N2O and isofluorane (Abbot B.V., Hoofddorp, Netherlands). A pre-mounted 2.5×9 mm BeStent™ 2 (Medtronic-Bakken Research, Maastricht, the Netherlands) was implanted in the abdominal aorta as previously described, or a sham operation was performed.^35 Subsequently, an osmotic minipump with a pumping rate of 0.25 μl/hour, lasting for 28 days (Model 2004, Alzet, Charles River Nederland, Maastricht, Netherlands), was implanted subcutaneously for drug delivery via a catheter in the jugular vein. Stented rats received angiotensin-(1-7) (Bachem, Weil am Rhein, Germany) (24 μg/kg/hour) (n=7) or saline (0.25 μl/hour) (n=10). Sham-operated rats received saline infusion (n=6). […] At this concentration, Ang-(1-7) binds to the Mas receptor and has subsequent functional effects. Five rats died peri-operatively due to rupture of the aorta.

[4] = stented rats, 24 μg/kg/hour, mean ± SEM

CC[C@H](C)[C@H](NC(=O)[C@H](Cc1ccc(O)cc1)NC(=O)[C@@H](NC(=O)[C@H](CCCNC(=N)N)NC(=O)[C@@H](N)CC(=O)O)C(C)C)C(=O)N[C@@H](Cc1c[nH]cn1)C(=O)N1CCC[C@H]1C(=O)O [Ang-(1-7), angiotensin-(1-7)]
Neointimal Area [1, 4]: 0.51 ± 0.05 mm^2
Neointimal Thickness [1, 4]: 112 ± 8 μm
Percentage Stenosis [1, 4]: 10.4 ± 1.0%
IEL Area, change with treatment ([1]; vs saline control): −2%
Mean Injury Score, change with treatment ([1]; vs saline control): 18.2%
Media Area, change with treatment ([1]; vs saline control): −12.8%
Neointimal Area, change with treatment ([1]; vs saline control): −27.1%
Neointimal Thickness, change with treatment ([1]; vs saline control): −20.6%
Percentage Stenosis, change with treatment ([1]; vs saline control): −25.7%
Decrease in neointimal area ([1]; vs saline-treated stented rats): 27%
Decrease in neointimal thickness ([1]; vs saline-treated stented rats): 21%
Decrease in percentage stenosis ([1]; vs saline-treated stented rats): 26%
Relaxation on endothelium-independent vasodilator sodium nitrite ([2]; sodium nitrite 10 mM, phenylephrine precontracted rings, vs sham and control): equal; also recorded: No differences
Contraction on phenylephrine ([2]; thoracic aortic rings, phenylephrine 1 mM, mean ± SEM): 254±29 μm
level at time molar [3]: ~0.918 nM
